A short description of series [1]: 11-day body weight gain of rats in the adjuvant-induced arthritis study. It is filed as in vivo, male Sprague-Dawley rats. The conditions noted are these: for Avg. Final Body wt. / Avg. Weight Gain: oral gavage once per day for 11 days. The method, then:
(§1) Rats weighting between 275-310 g were purchased from Animal Technologies Ltd., Kent, Wash. They were male Sprague-Dawley rats. The animals were kept individually in stainless steel cages with free access to water and feed (Harlan Teklan Rodent Diet). The light cycle was maintained at 12 hours light and 12 hours dark. The temperature was maintained at 22° C.±3° C. with a relative humidity of 40 to 70%.
(§2) The test materials were delivered orally (by gavage) once per day for 11 days.
(§3) The test materials were given orally (by gavage) to each of 5 rats per treatment group once per day for 11 days. Administration of the test materials was initiated on the day of induction of inflammation.
(§4) The left hind paw was measured just before sensitization and again on Day 11. The plantar edema inhibitory rate and the body weight gain rate were determined by comparison with the non-sensitized rat groups.

In series [2] the test system is Adjuvant Induced Arthritis in Rats. Description: Adjuvant-induced arthritis model in rats (paw weight, anti-inflammatory activity). The format is in vivo, male Sprague-Dawley rats. The settings on record: oral gavage once per day for 11 days; for Raw Paw Weight: Day 11, group average. The method, then:
Adjuvant-induced arthritis responds to both steroids and non-steroids. The degree of inflammation will be assessed by measuring differences in foot weight and/or the foot volume.
as §1
The composite was prepared by combining the isolated compounds genistein, flavionic acid, diadzien, diadzin and the peptide having the sequence Tyrosine-Glycine-Serine-Arginine-Serine. One milligram of each was mixed into 9 ml of distilled water and 1 ml of alcohol. The mixture was then diluted in order to deliver by daily gavage one and 10 mcg doses per kilo body weight.
as §2
Male Sprague-Dawley rats (275-310 g) were sensitized by injecting Fruend's complete adjuvant (0.5% suspension of killed mycobacterium tuberculosis (H37RA, Difco, in mineral oil)). A 0.1 ml aliquot was administered intradermally at a plantar site on the right hind leg of each rat.
as §3, §4
The paw weights for each group were averaged. Anti-inflammatory activity was determined by comparing paw weights calculated as follows: [formula]
Hydrocortisone was used as a positive control. It is a common anti-inflammatory given to rheumatoid arthritis patients at a dose of 10 mg/kg body weight. The composite of the invention was given at 10 mcg/kg and 1 mcg/kg body weight.

Data on one compound can be found in US20050261197A1, “Coffee bean extract, method of extraction and composition containing the same” (priority 2004, published 2005).

The term inhibition denotes the percentage by which the read-out fell short of the control.

For `C[C@]12CCC(=O)C=C1CC[C@@H]1[C@@H]2[C@@H](O)C[C@@]2(C)[C@H]1CC[C@]2(O)C(=O)CO` [Hydrocortisone], the “Avg. Final Body wt.” value came to 331.0 g in series [1] (1 mcg/kg body wt.) and 317.0 g in series [1] (10 mcg/kg body wt.). The “Avg. Weight Gain” value amounted to 31.4 g in series [1] (1 mcg/kg body wt.) and 23.6 g in series [1] (10 mcg/kg body wt.). For the same compound, the “reduction in weight gain” value in series [1] (10 mcg/kg body weight, 11 days, versus controls) is listed as around 50%. Moreover, the “Raw Paw Weight” value was determined as 0.80 g in series [2] (1 mcg/kg body wt.) and 0.76 g in series [2] (10 mcg/kg body wt.). Also, the inhibition at 0.001 mg/kg in series [2] (Rattus norvegicus, 264 h, 1 mcg/kg body wt., calculated from paw weights) was 50%. The inhibition at 0.01 mg/kg in series [2] (Rattus norvegicus, 264 h, 10 mcg/kg body wt., calculated from paw weights) was 58%.
